26 compounds from patent publication US9415055B2, “Cyclic amines” (H. Lundbeck A/S, priority 2012, dated 2016) can be followed below.

Each structure is given as a SMILES string.

P2X7 receptor, sequence (Q99572 whole entry): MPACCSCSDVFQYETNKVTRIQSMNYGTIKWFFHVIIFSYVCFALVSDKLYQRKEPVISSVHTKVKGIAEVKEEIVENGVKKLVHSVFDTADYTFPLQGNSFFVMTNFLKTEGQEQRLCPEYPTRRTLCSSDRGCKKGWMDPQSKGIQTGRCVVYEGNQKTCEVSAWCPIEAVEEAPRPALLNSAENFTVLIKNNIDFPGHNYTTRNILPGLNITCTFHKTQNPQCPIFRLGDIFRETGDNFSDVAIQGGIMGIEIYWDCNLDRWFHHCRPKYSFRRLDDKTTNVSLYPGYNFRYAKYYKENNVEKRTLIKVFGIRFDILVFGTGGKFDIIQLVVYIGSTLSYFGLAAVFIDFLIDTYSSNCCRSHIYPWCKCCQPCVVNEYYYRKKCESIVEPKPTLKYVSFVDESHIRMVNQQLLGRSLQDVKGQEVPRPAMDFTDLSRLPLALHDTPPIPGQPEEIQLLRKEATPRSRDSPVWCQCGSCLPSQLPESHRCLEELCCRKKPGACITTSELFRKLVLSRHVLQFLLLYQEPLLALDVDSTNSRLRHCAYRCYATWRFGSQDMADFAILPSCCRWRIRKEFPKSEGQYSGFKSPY

This test concerns the target P2X7 receptor (Homo sapiens (Human), UniProt Q99572). Kind of test: P2X7 FLIPR assay: antagonism of BzATP response in 293 HEK cells stably expressing P2X7 receptor. The format is cell-based. The conditions noted are these: FLIPR fluorescence (Fluo-4), agonist BzATP, 293 HEK cells stably transfected with P2X7 receptor. The procedure:
Cells were plated to cell density of approximately 15,000 cells/well in 384-well assay plates (50 μl/well) with 1.5% low serum media (DMEM, 1.5% BCS, 1% L-glut (2 mM), 1% P/S).
Cells were plated to cell density of approximately 15,000 cells/well in 384-well assay plates (50 μl/well) with 1.5% low serum media (DMEM, 1.5% FBS, 1% L-glut (2 mM), 10 mM HEPES, 1% P/S). Cells were plated 24 hours prior to assay. Cells expressing human, rat or mouse P2X7 receptor were assayed in the following manner.
Fluo-4 NW dye mix (Molecular Probes, Inc., Eugene, Oreg., USA) was prepared in buffer (see manufacturer's instructions). Cell plates were removed from the 37° C. incubator, the media discarded and then 30 μL of dye was added to each well. Plates were placed in the 37° C., non-CO2 incubator for 30 minutes and then room temperature for 30 minutes.
Compound mixtures (A) were added to assay plates containing cells and placed at room temperature for 30 minutes, then BzATP (B) was added. Fluorescence was read using the Tetra FLIPR® (Molecular Devices, Inc., Sunnyvale, Calif., USA) and IC50 values were calculated by standard methods to determine antagonist activity.
As usually defined, the IC50 is the concentration that gives 50% inhibition. Compound `Cc1ccc(C(CNC(=O)c2cccc(F)c2Cl)N2CCC(F)(F)CC2)cn1` (single isomer, unassigned; (+)) [(+)2-chloro-N-[2-(4,4-difluoro-1-piperidyl)-2-(6-methyl-3-py] [(+)2-chloro-3-fluoro-N-(2-(4,4-difluoropiperidin-1-yl)-2-(2-methylpyridin-5-yl)ethyl)benzamide] showed an IC50 of 33 nM.

In turn, `Cc1ncc(C(CNC(=O)c2c(Cl)ccc(F)c2Cl)N2CCC(F)(F)CC2)cn1` (single isomer, unassigned; (-)) [(−)2,6-dichloro-N-[2-(4,4-difluoro-1-piperidyl)-2-(2-methylp] [(−)2,6-dichloro-5-fluoro-N-(2-(4,4-difluoropiperidin-1-yl)-2-(2-methylpyrimidin-5-yl)ethyl)benzamide] had an IC50 of 37 nM. Next, `Cc1ccccc1C(=O)NCC(c1ccc(Cl)cc1)N1CCC(F)(F)CC1` (centres unmarked) [N-[2-(4-Chloro-phenyl)-2-(4,4-difluoro-piperidin-1-yl)-ethyl]-2-methyl-benzamide]: 2 nM. Next, `Cc1ncc(C(CNC(=O)c2ccccc2Cl)N2CCCOCC2)cn1` (centres unmarked) [2-chloro-N-(2-(2-methylpyrimidin-5-yl)-2-(1,4-oxazepan-4-yl)ethyl)benzamide]: 680 nM; `Cc1ccc(Cl)c(C(=O)NCC(c2cccnc2)N2CCOCC2)c1` (centres unmarked) [2-Chloro-5-methyl-N-(2-morpholin-4-yl-2-pyridin-3-yl-ethyl)-benzamide]: 3000 nM; `O=C(NCC(c1cnc(C2CC2)nc1)N1CCC(F)(F)CC1)c1cccc(Cl)c1Cl` (single isomer, unassigned; (-)) [(−)2,3-dichloro-N-[2-(2-cyclopropylpyrimidin-5-yl)-2-(4,4-di] [(−)2,3-dichloro-N-(2-(2-cyclopropylpyrimidin-5-yl)-2-(4,4-difluoropiperidin-1-yl)ethyl)benzamide]: 3.5 nM. On to `O=C(NCC(c1ccc(C(F)(F)F)nc1)N1CCC(F)(F)CC1)c1cccc(F)c1Cl` (single isomer, unassigned; (+)) [(+)2-chloro-N-[2-(4,4-difluoro-1-piperidyl)-2-[6-(trifluorom] [(+)2-chloro-N-(2-(4,4-difluoropiperidin-1-yl)-2-(2-(trifluoromethyl)pyridin-5-yl)ethyl)-3-fluorobenzamide], for which the IC50 is 1.7 nM.

On to `O=C(NCC(c1cnc(C(F)(F)F)nc1)N1CCC(F)(F)CC1)c1c(Cl)ccc(F)c1Cl` (single isomer, unassigned; (-)) [(−)2,6-dichloro-N-[2-(4,4-difluoro-1-piperidyl)-2-[2-(triflu] [(−)2,6-dichloro-5-fluoro-N-(2-(4,4-difluoropiperidin-1-yl)-2-(2-(trifluoromethyl)pyrimidin-5-yl)ethyl)benzamide], for which the IC50 was found to be 4.9 nM.

In the case of `Cc1ncc(C(CNC(=O)c2cccc(OC(F)F)c2Cl)N2CCC(F)(F)CC2)cn1` (single isomer, unassigned; (-)) [(−)2-chloro-3-(difluoromethoxy)-N-[2-(4,4-difluoro-1-piperid] [(−)2-chloro-3-(difluoromethoxy)-N-(2-(4,4-difluoropiperidin-1-yl)-2-(2-methylpyrimidin-5-yl)ethyl)benzamide], the IC50 turned out to be 37 nM. As for `Cc1ccc(C(CNC(=O)c2cccc(Cl)c2Cl)N2CCOCC2)cn1` (single isomer, unassigned; (+)) [(+)2,3-Dichloro-N-[2-(6-methyl-3-pyridyl)-2-morpholino-ethyl]benzamide], the IC50 was found to be 44 nM. In the case of `O=C(NCC(c1cnc(C(F)(F)F)nc1)N1CCOCC1)c1cccc(F)c1Cl` (centres unmarked) [2-chloro-3-fluoro-N-(2-morpholino-2-(2-(trifluoromethyl)pyrimidin-5-yl)ethyl)benzamide] it was 11 nM; in that of `Cn1cc(C(CNC(=O)c2ccccc2Cl)N2CCC(F)(F)CC2)cn1` (single isomer, unassigned; (+)) [(+)2-chloro-N-[2-(4,4-difluoro-1-piperidyl)-2-(1-methylpyraz] [(+)2-chloro-N-(2-(4,4-difluoropiperidin-1-yl)-2-(1-methyl-1H-pyrazol-4-yl)ethyl)benzamide], 180 nM. Next, `O=C(NCC(c1cnc(C2CC2)nc1)N1CCC(F)(F)CC1)c1c(Cl)cccc1Cl` (single isomer, unassigned; (+)) [(+)2,6-dichloro-N-(2-(2-cyclopropylpyrimidin-5-yl)-2-(4,4-difluoropiperidin-1-yl)ethyl)benzamide]: 5.3 nM; `COc1cccc(C(=O)NCC(c2cnc(C(F)(F)F)nc2)N2CCC(F)(F)CC2)c1Cl` (single isomer, unassigned; (-)) [(−)2-chloro-N-[2-(4,4-difluoro-1-piperidyl)-2-[2-(trifluorom] [(−)2-chloro-N-(2-(4,4-difluoropiperidin-1-yl)-2-(2-(trifluoromethyl)pyrimidin-5-yl)ethyl)-3-methoxybenzamide]: 4.8 nM; `Cc1ncc(C(CNC(=O)c2cc(F)cc(Cl)c2Cl)N2CCC(F)(F)CC2)cn1` (single isomer, unassigned; (-)) [(−)2,3-dichloro-N-[2-(4,4-difluoro-1-piperidyl)-2-(2-methylp] [(−)2,3-dichloro-5-fluoro-N-(2-(4,4-difluoropiperidin-1-yl)-2-(2-methylpyrimidin-5-yl)ethyl)benzamide]: 14 nM. In the case of `Cc1ncc(C(CNC(=O)c2cccc(Cl)c2Cl)N2CCCCC2)cn1` (single isomer, unassigned; (-)) [(−)2,3-dichloro-N-[2-(2-methylpyrimidin-5-yl)-2-(1-piperidyl] [(−)2,3-dichloro-N-(2-(2-methylpyrimidin-5-yl)-2-(piperidin-1-yl)ethyl)benzamide] it was 21 nM. On to `CC1(C)CCN(C(CNC(=O)c2cccc(Cl)c2Cl)c2cnc(C(F)(F)F)nc2)CC1` (centres unmarked) [2,3-dichloro-N-(2-(4,4-dimethylpiperidin-1-yl)-2-(2-(trifluoromethyl)pyrimidin-5-yl)ethyl)benzamide], for which the IC50 was found to be 2500 nM.

Consider `Cc1ncc(C(CNC(=O)c2cccc(Cl)c2Cl)N2CCCCC2C)cn1` (centres unmarked) [2,3-dichloro-N-(2-(2-methylpiperidin-1-yl)-2-(2-methylpyrimidin-5-yl)ethyl)benzamide], for which the half-inhibitory concentration (IC50) amounted to 310 nM. In the case of `O=C(NCC(c1cnc(C2CC2)nc1)N1CCC(F)(F)CC1)c1ccccc1Cl` (single isomer, unassigned; (-)) [(−)2-chloro-N-[2-(2-cyclopropylpyrimidin-5-yl)-2-(4,4-difluo] [(−)2-chloro-N-(2-(2-cyclopropylpyrimidin-5-yl)-2-(4,4-difluoropiperidin-1-yl)ethyl)benzamide], the IC50 was found to be 7.6 nM. Next, `Cc1ncc(C(CNC(=O)c2cc(F)cc(Cl)c2Cl)N2CCC(F)(F)CC2)cn1` (single isomer, unassigned; (+)) [(+)2,3-dichloro-N-[2-(4,4-difluoro-1-piperidyl)-2-(2-methylp] [(+)2,3-dichloro-5-fluoro-N-(2-(4,4-difluoropiperidin-1-yl)-2-(2-methylpyrimidin-5-yl)ethyl)benzamide]: 5.1 nM. Consider `COc1cccc(C(=O)NCC(c2ccc(C(F)F)nc2)N2CCC(F)(F)CC2)c1Cl` (single isomer, unassigned; (-)) [(−)2-chloro-N-[2-[6-(difluoromethyl)-3-pyridyl]-2-(4,4-diflu] [(−)2-chloro-3-methoxy-N-(2-(2-(difluoromethyl)pyridin-5-yl)-2-(4,4-difluoropiperidin-1-yl)ethyl)benzamide], for which the IC50 was 1.9 nM.

`O=C(NCC(c1ccc(C(F)(F)F)nc1)N1CCC(F)(F)CC1)c1cccc(Cl)c1Cl` (centres unmarked) [2,3-Dichloro-N-[2-(4,4-difluoro-1-piperidyl)-2-[6-(trifluoromethyl)-3-pyridyl]ethyl]benzamide] showed an IC50 of 1.3 nM. In the case of `Cc1ncc(C(CNC(=O)c2c(Cl)cccc2Cl)N2CCC(F)(F)CC2)cn1` (single isomer, unassigned; (+)) [(+)2,6-dichloro-N-[2-(4,4-difluoro-1-piperidyl)-2-(2-methylp] [(+)2,6-dichloro-N-(2-(4,4-difluoropiperidin-1-yl)-2-(2-methylpyrimidin-5-yl)ethyl)benzamide] it was 19 nM; in that of `O=C(NCC(c1cnc(C(F)(F)F)nc1)N1CCOCC1)c1ccccc1Cl` (single isomer, unassigned; (+)) [(+)2-chloro-N-[2-morpholino-2-[2-(trifluoromethyl)pyrimidin-] [(+)2-Chloro-N-[2-morpholino-2-[2-(trifluoromethyl)pyrimidin-5-yl]ethyl]benzamide], 30 nM.

In turn, `O=C(NCC(c1ccc(C(F)(F)F)nc1)N1CCOCC1)c1c(F)cccc1F` (single isomer, unassigned; (-)) [(−)2,6-difluoro-N-[2-morpholino-2-[6-(trifluoromethyl)-3-pyr] [(−)2,6-difluoro-N-(2-morpholino-2-(6-(trifluoromethyl)pyridin-3-yl)ethyl)benzamide] gave an IC50 of 480 nM.

Regarding `O=C(NCC(c1ccc(C(F)(F)F)nc1)N1CCC(F)(F)CC1)c1cccc(F)c1Cl` (single isomer, unassigned; (-)) [(−)2-chloro-N-[2-(4,4-difluoro-1-piperidyl)-2-[6-(trifluorom] [(−)2-chloro-N-(2-(4,4-difluoropiperidin-1-yl)-2-(2-(trifluoromethyl)pyridin-5-yl)ethyl)-3-fluorobenzamide], the IC50 is 5.7 nM.
